Reference: patent US11084781B2, “Diarylureas as CB1 allosteric modulators” (Research Triangle Institute, priority 2017, dated 2021)
Entries after “also recorded” stand apart in the source; their conditions may differ.

Tests used:
human CB1 receptor [1] = target: T1, human CB1 receptor (Homo sapiens, UniProt P21554); assay: CB1 calcium mobilization assay, agonist screen; format: cell-based; details: Table 1; 10,000 nM final concentration; mean ± SD
T1 construct: host or cells: CHO-RD-HGA16 cells (CHO cells overexpressing promiscuous Galpha16)
T1 sequence (P21554 whole entry): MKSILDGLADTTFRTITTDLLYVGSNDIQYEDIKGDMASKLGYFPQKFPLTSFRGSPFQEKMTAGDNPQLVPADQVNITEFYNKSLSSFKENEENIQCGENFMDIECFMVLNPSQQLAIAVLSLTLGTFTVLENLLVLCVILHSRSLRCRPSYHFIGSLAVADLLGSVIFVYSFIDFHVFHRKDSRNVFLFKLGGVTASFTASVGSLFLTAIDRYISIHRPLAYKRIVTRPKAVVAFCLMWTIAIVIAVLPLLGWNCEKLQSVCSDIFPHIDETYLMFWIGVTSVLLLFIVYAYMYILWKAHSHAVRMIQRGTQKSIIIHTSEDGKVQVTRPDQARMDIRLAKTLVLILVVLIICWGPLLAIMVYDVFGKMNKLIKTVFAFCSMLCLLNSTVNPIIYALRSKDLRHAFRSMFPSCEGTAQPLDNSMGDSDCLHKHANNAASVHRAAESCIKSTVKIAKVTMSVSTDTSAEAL
Description: CHO-RD-HGA16 cells (Molecular Devices, CA) stably expressing the human CB1 receptor were plated into 96-well black-walled assay plates at 25,000 cells/well in 100 μL of Ham's F12 (supplemented with 10% fetal bovine serum, 100 units of penicillin/streptomycin, and 100 μg/mL Normocin) and incubated overnight at 37° C., 5% CO2. Calcium 5 dye (Molecular Devices, CA) was reconstituted according to the manufacturer's instructions. The reconstituted dye was diluted 1:40 in prewarmed (37° C.) assay buffer (1×HBSS, 20 mM HEPES, 2.5 mM probenecid, pH 7.4 at 37° C.). Growth medium was removed, and the cells were gently washed with 100 μL of prewarmed (37° C.) assay buffer. The cells were incubated for 45 min at 37° C., 5% CO2 in 200 μL of the diluted Calcium 5 dye solution. […] Serial dilutions of the test compounds were prepared at 10× the desired final concentration in 2.25% BSA/4.5% DMSO/4.5% EtOH/assay buffer. After the dye loading incubation period, the cells were pretreated with 25 μL of the test compound serial dilutions and incubated for 15 min at 37° C. After the pretreatment incubation period, the plate was read with a FLIPR Tetra (Molecular Devices, CA). Calcium-mediated changes in fluorescence were monitored every 1 s over a 90 s time period, with the Tetra adding 25 μL of the CP55,940 EC80 concentration at the 10s time point (excitation/emission: 485/525 nm). Relative fluorescence units (RFU) were plotted against the log of compound concentrations. Data were fit to a three-parameter logistic curve to generate IC50 values (GraphPad Prism 6.0, CA). […] For agonist screens, the above procedure was followed except that cells were pretreated with 2.25% BSA/4.5% DMSO/4.5% EtOH/assay buffer and the Tetra added single concentration dilutions of the test compounds prepared at 10× the desired final concentration in 0.25% BSA/0.5% DMSO/0.5% EtOH/assay buffer. Test compound RFUs were compared to the CP55,940 Emax RFUs to generate % Emax values.

[2] = Metabolic stability in rat liver microsomes; format: in vitro ADME
Description: Metabolic stability assessment was performed by Paraza Pharma Inc. (Montreal, Canada).
Compounds were incubated with rat liver microsomes at 37° C. for a total of 45 minutes. The reaction was performed at pH 7.4 in 100 mM potassium phosphate buffer containing 0.5 mg/mL of rat liver microsomal protein. Phase I metabolism was assessed by adding NADPH to a final concentration of 1 mM and collecting samples at time points 0, 5, 15, 30 and 45 minutes. All collected samples were quenched 1:1 with ice-cold stop solution (1 μM labetalol and 1 μM glyburide in acetonitrile), and centrifuged to remove precipitated protein. Resulting supernatants were further diluted 1:4 with acetonitrile:water (1:1). Samples were analyzed by LC/MS/MS and calculations for half-life, and in-vitro clearance were accomplished using Microsoft Excel (2007).

CB1 receptor = target: T2, CB1 receptor (Mus musculus, UniProt P47746); assay: [35S]GTP-γ-S binding assay in mouse cerebellar membranes, CP55,940-stimulated; format: biochemical; details: for IC50: CP55,940 (100 nM) stimulation, mean (95% confidence interval)
T2 construct: from tissue; host or cells: cerebellar membranes of adult male CD-1 mice
T2 sequence (P47746 whole entry): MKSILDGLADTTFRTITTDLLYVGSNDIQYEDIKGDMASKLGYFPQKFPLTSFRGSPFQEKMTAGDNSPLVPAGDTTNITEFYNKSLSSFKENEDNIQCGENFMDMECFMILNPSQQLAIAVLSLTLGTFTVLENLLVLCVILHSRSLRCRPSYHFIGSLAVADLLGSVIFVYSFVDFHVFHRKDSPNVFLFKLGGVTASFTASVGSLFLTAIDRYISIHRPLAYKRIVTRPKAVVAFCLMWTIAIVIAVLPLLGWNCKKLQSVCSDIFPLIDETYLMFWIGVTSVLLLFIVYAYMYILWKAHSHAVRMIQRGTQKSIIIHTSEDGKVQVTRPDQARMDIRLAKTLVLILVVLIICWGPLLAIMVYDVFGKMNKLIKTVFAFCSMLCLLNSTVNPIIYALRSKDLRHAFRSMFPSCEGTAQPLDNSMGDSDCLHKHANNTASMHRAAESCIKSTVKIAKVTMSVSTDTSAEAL
Description: Cerebella from adult male CD-1 mice were dissected on ice, snap frozen, and stored at −80° C. until the day of the experiment. Cerebella were homogenized by polytron in membrane buffer (50 mM Tris, 3 mM MgCl2, 0.2 mM EGTA, 100 mM NaCl, pH 7.4) on ice, centrifuged for 10 min at 40,000×g at 4° C. The supernatant was discarded and the pellet was suspended in membrane buffer, homogenized, and centrifuged again for 10 min at 40,000×g. The pellet was resuspended in membrane buffer and protein quantified by Bradford method.
CB1 receptor agonist CP55,940 was employed as the agonist probe.

human CB1 receptor [3] = target: T1, human CB1 receptor; assay: CB1 calcium mobilization assay (antagonist mode, against EC80 of CP55,940); format: cell-based; details: Table 1; against EC80 (100 nM) of CP55,940; mean ± S.E.M.; read-out: CB1 calcium assay IC50
Description: CHO-RD-HGA16 cells (Molecular Devices, CA) stably expressing the human CB1 receptor were plated into 96-well black-walled assay plates at 25,000 cells/well in 100 μL of Ham's F12 (supplemented with 10% fetal bovine serum, 100 units of penicillin/streptomycin, and 100 μg/mL Normocin) and incubated overnight at 37° C., 5% CO2. Calcium 5 dye (Molecular Devices, CA) was reconstituted according to the manufacturer's instructions. The reconstituted dye was diluted 1:40 in prewarmed (37° C.) assay buffer (1×HBSS, 20 mM HEPES, 2.5 mM probenecid, pH 7.4 at 37° C.). Growth medium was removed, and the cells were gently washed with 100 μL of prewarmed (37° C.) assay buffer. […] After the pretreatment incubation period, the plate was read with a FLIPR Tetra (Molecular Devices, CA). […] Relative fluorescence units (RFU) were plotted against the log of compound concentrations. Data were fit to a three-parameter logistic curve to generate IC50 values (GraphPad Prism 6.0, CA). […] Test compound RFUs were compared to the CP55,940 Emax RFUs to generate % Emax values.
In these assays, CHO cells that overexpress the promiscuous Gα16 protein were engineered to stably express the CB1 or CB2 receptor. Compounds were evaluated for their ability to decrease the mobilization of intracellular calcium levels stimulated by CP55,940.

[4] = test system: cocaine-seeking behavior in rats; assay: Reinstatement of extinguished cocaine-seeking behavior; format: in vivo, rat
Description: Animals: Adult male Sprague-Dawley rats (Harlan, Indianapolis, Ind.) weighing 280-300 g were used in the study. Animals were housed individually on a 12/12 hr light/dark cycle (behavioral experiments were conducted during the light period) with free access to water and food except during experimental sessions. Animals were maintained and experiments conducted in accordance with the Institutional Animal Care and Use Committee, University at Buffalo, and with the 2011 Guide for the Care and Use of Laboratory Animals (Institute of Laboratory Animal Resources on Life Sciences, National Research Council, National Academy of Sciences, Washington D.C.).
Drug self-administration, extinction and reinstatement: The reinstatement procedure was described in detail elsewhere^37, 38. Briefly, rats were surgically implanted with a chronic indwelling jugular catheter. After one-week recovery, rats were trained to press the active lever (left lever) for infusion of cocaine (0.75 mg/kg/inf) under a fixed ratio [FR] schedule (starting FR=1, which was increased to FR 5 within 5 training sessions) schedule during daily 2-hr sessions for 14 days. Reinforcer deliveries were accompanied by the presentation of a stimulus light over the active lever followed by a 30-s time-out period during which lever presses had no programmed consequence. Following acquisition of cocaine self-administration, extinction of drug-seeking behavior took place during 2-hr daily sessions in which lever pressing produced no consequence. All other conditions remained unchanged. After 7 days of extinction, all rats reached the extinction criteria (total responses less than 20% of the training sessions).
Drug-induced reinstatement test was conducted on the day following the last extinction session. Rats were pretreated with vehicle, compounds 2 (15, 30 mg/kg) or 34 (10 mg/kg) 10 min prior to a priming injection of cocaine (10 mg/kg, i.p.) administered immediately before the start of the reinstatement session.
Data analyses: Data are expressed as mean±S.E.M. Differences in active lever responding between the last extinction session and reinstatement session were determined with paired t tests (within subjects comparison). The effects of compounds 2 on reinstatement were analyzed by a one-way analysis of variance (ANOVA) followed by post hoc Bonferroni's test (between subjects comparison). The effects of compounds 34 on reinstatement was analyzed by Student's t test. P<0.05 was considered statistically significant.

[5] = pretreatment 10 min prior to cocaine prime 10 mg/kg i.p.

Question: With `O=C(Nc1ccc(Cl)cc1)Nc1cccc(-c2ccncc2)c1` [Compound 20, 3-(4-Chlorophenyl)-1-[3-(pyridin-4-yl)phenyl]urea] as the compound, how does the “CB1 calcium assay Agonist screen (% CP55, 940 Emax)” value (human CB1 receptor [1]) read?
Answer: 14.5 ± 2.5 % CP55, 940 Emax

Question: And the Clearance ([2]; 0.5 mg/mL, NADPH, 37° C., mean ± S.E.M.)?
Answer: 33.1 ± 1.0 µL/min/mg

Question: And the “Increase in metabolic stability relative to B” value ([2]; half-life vs B)?
Answer: ~3 fold

Question: And the IC50 (CB1 receptor)?
Answer: 407 nM

Question: And the IC50 (human CB1 receptor [3])?
Answer: 178 ± 38 nM

Question: What does the source list for `O=C(Nc1ccc(Cl)cc1)Nc1cccc(-c2cc(Cl)cc(Cl)c2)c1` [Compound 31, 3-(4-Chlorophenyl)-1-[3-(3,5-dichlorophenyl)phenyl]urea]?
Answer: CB1 calcium assay Agonist screen (% CP55, 940 Emax) (human CB1 receptor [1]): 15.5 ± 2.4 % CP55, 940 Emax; IC50 (CB1 receptor): 299 nM; IC50 (human CB1 receptor [3]): 22 ± 2 nM

Question: Which results are given for `O=C(Nc1ccc(Cl)cc1)Nc1cccc(-c2ccc(Cl)c(Cl)c2)c1` [Compound 32, 3-(4-Chlorophenyl)-1-[3-(3,4-dichlorophenyl)phenyl]urea]?
Answer: CB1 calcium assay Agonist screen (% CP55, 940 Emax) (human CB1 receptor [1]): 10.4 ± 2.1 % CP55, 940 Emax; IC50 (CB1 receptor): 464 nM; IC50 (human CB1 receptor [3]): 30 ± 4 nM

Question: Which results are given for `O=C(Nc1ccc(Cl)cc1)Nc1cccc(-c2ccc(F)cc2)c1` [Compound 34, 3-(4-Chlorophenyl)-1-[3-(4-fluorophenyl)phenyl]urea]?
Answer: CB1 calcium assay Agonist screen (% CP55, 940 Emax) (human CB1 receptor [1]): 8.8 ± 1.1 % CP55, 940 Emax; half-life ([2]; pH 7.4, 0.5 mg/mL, NADPH, 37° C., mean ± S.E.M.): > 5 h; microsomal CLint ([2]; pH 7.4, 0.5 mg/mL, NADPH, 37° C., mean ± S.E.M., read-out: Clearance): < 4.6 µL/min/mg; IC50 (CB1 receptor): 151 nM; IC50 (human CB1 receptor [3]): 23 ± 2 nM; Attenuation of cocaine-induced reinstatement of cocaine-seeking behavior ([4]; dose 10 mg/kg, cocaine prime 10 mg/kg i.p.): produced the same degree of attenuation as that of 30 mg/kg of B; Attenuation of cocaine-induced reinstatement of cocaine-seeking behavior [4, 5]: attenuated the resumption of extinguished cocaine-seeking behavior

Question: Which results are given for `O=C(Nc1ccc(Cl)cc1)Nc1cccc(-c2cccc(-c3ccccc3)c2)c1` [Compound 38, 3-(4-Chlorophenyl)-1-[3-(3-phenylphenyl)phenyl]urea]?
Answer: CB1 calcium assay Agonist screen (% CP55, 940 Emax) (human CB1 receptor [1]): 0.5 ± 0.2 % CP55, 940 Emax; IC50 (CB1 receptor): 559 nM; IC50 (human CB1 receptor [3]): 195 ± 40 nM

Question: With `O=C(Nc1ccc(Cl)cc1)Nc1cccc(-c2ccc3occc3c2)c1` [Compound 41, 1-[3-(1-Benzofuran-5-yl)phenyl]-3-(4-chlorophenyl)urea] as the compound, how does the “CB1 calcium assay Agonist screen (% CP55, 940 Emax)” value (human CB1 receptor [1]) read?
Answer: 0.2 ± 1.0 % CP55, 940 Emax

Question: And the IC50 (CB1 receptor)?
Answer: 265 nM

Question: What about the IC50 (human CB1 receptor [3]) of the same compound?
Answer: 134 ± 13 nM

Question: Which “CB1 calcium assay Agonist screen (% CP55, 940 Emax)” value (human CB1 receptor [1]) does the source give for `O=C(Nc1ccc(Cl)cc1)Nc1cccc(-c2cnc3ccccc3c2)c1` [Compound 44, 3-(4-Chlorophenyl)-1-[3-(quinolin-3-yl)phenyl]urea] here?
Answer: 2.6 ± 1.2 % CP55, 940 Emax

Question: And the IC50 (CB1 receptor)?
Answer: 651 nM

Question: And the IC50 (human CB1 receptor [3])?
Answer: 516 ± 70 nM

Question: Which results are given for `O=C(Nc1ccc(Cl)cc1)Nc1cccc(-c2ccsc2)c1` [Compound 47, 3-(4-Chlorophenyl)-1-[3-(thiophen-3-yl)phenyl]urea]?
Answer: CB1 calcium assay Agonist screen (% CP55, 940 Emax) (human CB1 receptor [1]): 28.9 ± 0.6 % CP55, 940 Emax; IC50 (CB1 receptor): 164 nM; IC50 (human CB1 receptor [3]): 36 ± 1 nM

Question: For `O=C(Nc1ccc(Cl)cc1)Nc1cccc(-c2cccs2)c1` [Compound 48, 3-(4-Chlorophenyl)-1-[3-(thiophen-2-yl)phenyl]urea], which “CB1 calcium assay Agonist screen (% CP55, 940 Emax)” value (human CB1 receptor [1]) is on record?
Answer: 12.8 ± 1.8 % CP55, 940 Emax

Question: What about the IC50 (CB1 receptor) of the same compound?
Answer: 573 nM

Question: And the IC50 (human CB1 receptor [3])?
Answer: 67 ± 6 nM

Question: For `Cc1cc(-c2cccc(NC(=O)Nc3ccc(Cl)cc3)c2)cs1` [Compound 49, 3-(4-Chlorophenyl)-1-[3-(5-methylthiophen-3-yl)phenyl]urea], which “CB1 calcium assay Agonist screen (% CP55, 940 Emax)” value (human CB1 receptor [1]) is on record?
Answer: 3.7 ± 1.7 % CP55, 940 Emax

Question: And the IC50 (CB1 receptor)?
Answer: 776 nM

Question: And the IC50 (human CB1 receptor [3])?
Answer: 40 ± 4 nM

Question: With `Cc1ccc(-c2cccc(NC(=O)Nc3ccc(Cl)cc3)c2)s1` [Compound 50, 3-(4-Chlorophenyl)-1-[3-(5-methylthiophen-2-yl)phenyl]urea] as the compound, how does the “CB1 calcium assay Agonist screen (% CP55, 940 Emax)” value (human CB1 receptor [1]) read?
Answer: 4.6 ± 1.4 % CP55, 940 Emax

Question: What about the IC50 (CB1 receptor) of the same compound?
Answer: 372 nM

Question: And the IC50 (human CB1 receptor [3])?
Answer: 42 ± 6 nM

Question: With `O=C(Nc1ccc(Cl)cc1)Nc1cccc(-c2cncs2)c1` [Compound 51, 3-(4-Chlorophenyl)-1-[3-(1,3-thiazol-5-yl)phenyl]urea] as the compound, how does the “CB1 calcium assay Agonist screen (% CP55, 940 Emax)” value (human CB1 receptor [1]) read?
Answer: 8.1 ± 3.1 % CP55, 940 Emax

Question: And the IC50 (CB1 receptor)?
Answer: 331 nM

Question: What about the IC50 (human CB1 receptor [3]) of the same compound?
Answer: 94 ± 9 nM

Question: Which “CB1 calcium assay Agonist screen (% CP55, 940 Emax)” value (human CB1 receptor [1]) does the source give for `O=C(Nc1ccc(Cl)cc1)Nc1cccc(-c2cscn2)c1` [Compound 52, 3-(4-Chlorophenyl)-1-[3-(1,3-thiazol-4-yl)phenyl]urea] here?
Answer: 8.6 ± 4.4 % CP55, 940 Emax

Question: And the IC50 (CB1 receptor)?
Answer: 250 nM

Question: What about the IC50 (human CB1 receptor [3]) of the same compound?
Answer: 84 ± 6 nM

Question: Which “CB1 calcium assay Agonist screen (% CP55, 940 Emax)” value (human CB1 receptor [1]) does the source give for `O=C(Nc1ccc(Cl)cc1)Nc1cccc(-c2nccs2)c1` [Compound 53, 3-(4-Chlorophenyl)-1-[3-(1,3-thiazol-2-yl)phenyl]urea] here?
Answer: 20.1 ± 1.1 % CP55, 940 Emax

Question: And the IC50 (CB1 receptor)?
Answer: 1260 nM

Question: What about the IC50 (human CB1 receptor [3]) of the same compound?
Answer: 154 ± 14 nM

Question: With `O=C(Nc1ccc(Cl)cc1)Nc1cccc(-c2ccc[nH]2)c1` [Compound 65, 3-(4-Chlorophenyl)-1-[3-(1H-pyrrol-2-yl)phenyl]urea] as the compound, how does the “CB1 calcium assay Agonist screen (% CP55, 940 Emax)” value (human CB1 receptor [1]) read?
Answer: 13.7 ± 0.1 % CP55, 940 Emax

Question: What about the IC50 (CB1 receptor) of the same compound?
Answer: 40 nM

Question: What about the IC50 (human CB1 receptor [3]) of the same compound?
Answer: 169 ± 34 nM

Question: With `Cn1cccc1-c1cccc(NC(=O)Nc2ccc(Cl)cc2)c1` [Compound 68, 3-(4-Chlorophenyl)-1-[3-(1-methyl-1H-pyrrol-2-yl)phenyl]urea] as the compound, how does the “CB1 calcium assay Agonist screen (% CP55, 940 Emax)” value (human CB1 receptor [1]) read?
Answer: 3.4 ± 2.9 % CP55, 940 Emax

Question: And the IC50 (CB1 receptor)?
Answer: 665 nM

Question: What about the IC50 (human CB1 receptor [3]) of the same compound?
Answer: 165 ± 14 nM

Question: What does the source list for `O=C(Nc1ccc(Cl)cc1)Nc1cccc(-c2ncc[nH]2)c1` [Compound 72, 3-(4-Chlorophenyl)-1-[3-(1H-imidazol-2-yl)phenyl]urea]?
Answer: CB1 calcium assay Agonist screen (% CP55, 940 Emax) (human CB1 receptor [1]): 4.3 ± 0.5 % CP55, 940 Emax; IC50 (CB1 receptor): 343 nM; IC50 (human CB1 receptor [3]): 529 ± 98 nM

Question: What does the source list for `O=C(Nc1ccc(Cl)cc1)Nc1cccc(N2CC3(COC3)C2)c1` [Compound 84, 3-(4-Chlorophenyl)-1-(3-{2-oxa-6-azaspiro[3.3]heptan-6-yl}phenyl)urea]?
Answer: CB1 calcium assay Agonist screen (% CP55, 940 Emax) (human CB1 receptor [1]): 28.8 ± 0.2 % CP55, 940 Emax; IC50 (CB1 receptor): > 10000 nM; IC50 (human CB1 receptor [3]): 792 ± 43 nM

Question: What does the source list for `O=C(Nc1ccc(Cl)cc1)Nc1cccc(-c2cccc(N3CCCC3)n2)c1` [Compound B, 1-(4-Chlorophenyl)-3-{3-[6-(pyrrolidin-1-yl)pyridin-2-yl]phenyl}urea, reference compound]?
Answer: CB1 calcium assay Agonist screen (% CP55, 940 Emax) (human CB1 receptor [1]): 28.2 ± 4.8 % CP55, 940 Emax; IC50 (CB1 receptor): 102 nM; Effect on [35S]GTP-γ-S binding level (CB1 receptor; CP55,940 as agonist probe): dose-dependently decreased; Attenuation of cocaine-induced reinstatement of cocaine-seeking behavior ([4]; dose 30 mg/kg, cocaine prime 10 mg/kg i.p.): significantly reduced cocaine-induced reinstatement behavior; Attenuation of cocaine-induced reinstatement of cocaine-seeking behavior [4, 5]: dose-dependently attenuated; also recorded: attenuated the resumption of extinguished cocaine-seeking behavior
